Assay results taken from paper PMC11763059, “GENI as an AMPK Activator Binds α and γ Subunits and Improves the Memory Dysfunction of Alzheimer’s Disease Mouse Models via Autophagy and Neuroprotection” (Antioxidants, 2025).

Columns and labels:
PC12 cells [1] = experiment: RT-PCR analysis of gene expression in PC12 cells; format: cell-based, Rat; details: PC12 cells under H2O2 induction
Experimental: RT-PCR analysis was performed as described in the material and methods section in Supplementary Information.
Supplementary information […]
1.1. Real-time polymerase chain reaction (RT-PCR) analysis
PC12 cells (2 × 106) were seeded in 60 mm dishes and treated with RES (10 μM) or GENI (3 or 10μM) for 24h. Total RNA was extracted with TRIzol Reagent (Beijing Cowin Biotech Company, Beijing, China). RNA content was determined using an Eppendorf Biophotometer Plus (Eppendorf Company, Hamburg, Germany). Transcription was performed using 5 μg of total RNA, Oligo (dT)20 primer and reverse transcriptase (Beijing Cowin Biotech Company, Beijing, China). Transcript levels were quantified by real-time PCR (AB SCIEX, Massachusetts, USA) and SYBR Premix EX Taq™ (Takara, Otsu, Japan). Primers (Sangon Biotech Co. Ltd., Shanghai, China) used in this study are given in Supplementary Table S3. The thermocycling parameters for PC12 cells were as follows: SOD1 and SOD2: 95 ℃ for 2 min, then 40 cycles, 54 ℃ for 35 seconds; Bcl-x1 and Nrf2: 95 ℃ for 2 min, then 40 cycles, 95 ℃ for 15 seconds, 60 ℃ […]
for 15 seconds, 68 ℃ for 20 seconds. All results were normalized to GAPDH RNA levels, and relative mRNA transcript levels were calculated using the ΔΔCt formula. […]
For NO content evaluation, firstly, the NO assay kit was removed, and Griess Reagents I and II were warmed to room temperature. The standard substance was diluted with cell culture solution to 0, 1, 2, 5, 10, 20, 40, 60 and 100 μM. Secondly, 50 μL of standard reagent and the diluted sample were added into a 96-well plate. […]
For IL-6 content evaluation, we prepared samples, standards and biotinylated antibody working […]
15.625 and 0 pg/mL for use, and blank holes were set. The 100 μL sample or standard substance of different concentrations was added to the corresponding hole, and about 50 μL of biotinylated antibody working liquid was added to the sample and standard substance hole. The reaction hole was sealed with sealing plate adhesive paper. The working liquid of the enzyme conjugate was prepared 30 min in advance by incubating at room temperature with a 300 rpm micro-oscillator for 120 min. The sample was placed at room temperature away from light, and the board was washed five times after incubation. In addition to the blank holes, 100 μL of enzyme conjugate working liquid was added to each hole, and the reaction holes were sealed with plate adhesive paper. The board was incubated at room temperature with a 300 rpm micro-oscillator for 60 min and then washed five times. […] About 100 μL of termination solution was added to each hole, and we measured the OD450 value immediately after mixing with a microplate reader (BioTek, California, USA).

D-gal-induced AD mice = experiment: Immunohistochemistry of brain in D-gal-induced AD mice; format: in vivo; details: compared with the D-gal group
Experimental: Each group comprised 10 mice. […] Dosing lasted for 10 weeks. […] The mice were sacrificed after 10 weeks of administration.
Firstly, the three mice of each group were subjected to heart perfusion at the end of the animal experiment, and the whole brain was removed and placed in 15 mL of 4% paraformaldehyde and stored at 4 °C for 24 h. Secondly, we changed 4% paraformaldehyde into 15% sucrose solution and stored the solution at 4 °C for 24 h. We then changed the solution to 30% sucrose solution to dehydrate for 2 days. Thirdly, the mouse brain tissue was embedded in a cryo-embedding medium, and about 80 slices with a thickness of 20 μm were cut in the hippocampus using a cryostat (Thermal Fisher, Shanghai, China). The sections of mice in each group were immunohistochemically stained with primary antibodies, such as neuronal nuclear anti gen (NeuN), ionized calcium-binding adapter molecule 1 (Iba-1), inducible nitric oxide synthase (iNOS, pro-inflammatory factors), synaptophysin (Syp), and glial fibrillary acidic protein (GFAP), and secondary antibody. The product number and usage ratios of primary and secondary antibodies are detailed in Supplementary Table S4. Finally, the sections were observed under an upright two-photon confocal microscope (Olympus BX61, Tokyo, Japan) and recorded by a camera. The pictures were digitized with ImageJ software V1.8.0.112 (National Institutes of Health, Bethesda, MD, USA).

PC12 cells [2] = experiment: MDA content assay in PC12 cells; format: cell-based; details: GENI 3 or 10 μM 24 h, 0.8 mM H2O2 1 h
Experimental: To determine ROS levels in PC12 cells, we seeded 5 × 10^4 PC12 cells in each well of a 24-well plate. Cells were treated with RES (10 μM) or GENI (1, 3, and 10 μM) for 24 h, followed by 0.8 mM H2O2 for 1 h. DCFH-DA (2,7-dichlorodihydrofluorescein diacetate, final concentration, 10 μM) was then added to each well and incubated for 30 min. Cells were washed with PBS to remove extracellular DCFH-DA, and intercellular ROS was detected by using a SpectraMax M3 multimode microplate reader (Molecular Devices Corporation, San Jose, CA, USA) at an excitation wavelength of 488 nm and an emission wavelength of 525 nm. Meanwhile, DCF in PC12 cells was observed using a fluorescence microscope (HCS, Thermo Fisher, Science, Waltham, MA, USA). To detect malondialdehyde (MDA) content and total SOD enzymatic activities in PC12 cells, we seeded 2 × 10^6 PC12 cells in 60 mm dishes containing 5 mL of DMEM and cultured the cells for 24 h. PC12 cells were treated with RES (10 μM) or GENI (3 or 10 μM) for 24 h and then treated with 0.8 mM H2O2 for 1 h to determine the MDA content and total superoxide dismutase (SOD) activities. Cells were lysed and centrifuged. […] MDA quantification and total SOD activities were determined using MDA and SOD enzyme activity assay kits (Nanjing Jiancheng Bioengineering Institute, Nanjing, China) following the manufacturer’s instructions.

[3] = DON 3 mg/kg, GENI 12.5, 25, 50 mg/kg groups

With `CC(C)CCOC(=O)C1=CO[C@@H](O[C@@H]2O[C@H](CO)[C@@H](O)[C@H](O)[C@H]2O)C2C(CO)=CCC12` (stereo partly shown) [GENI, Geniposidic 4-isoamyl ester] the “abundance of Bcl-x1 mRNA” value (PC12 cells [1]) was “significantly increased”, the “abundance of Nrf2 mRNA” value (PC12 cells [1]) was “significantly increased” and the “gene expression of SOD1” value (PC12 cells [1]; GENI 3 or 10 μM 24 h) was “increased”. For the same compound, the “gene expression of SOD2” value (PC12 cells [1]; GENI 3 or 10 μM 24 h) was “increased”, the “activation of astrocytes (GFAP) in the cerebral cortex” value (D-gal-induced AD mice) was “decreased” and the “activation of microglia (Iba-1) in the cerebral cortex” value (D-gal-induced AD mice) was “decreased”. The “expression of iNOS in the cerebral cortex” value (D-gal-induced AD mice) was “decreased”, the “Syp intensity in the cerebral cortex” value (D-gal-induced AD mice; [3]) was “significantly increased” and the “mature neurons (NeuN) in the cerebral cortex and hippocampus” value (D-gal-induced AD mice; [3]) was “significantly increased”. The “H2O2-induced increase in MDA” value (PC12 cells [2]) was “significantly reduce”.
